From patent publication US20260053811A1, “METHODS OF TREATING HYPERTENSION IN OBESE SUBJECTS” (Mineralys Therapeutics, Inc., priority 2022, published 2026)

Tested on: hypertensive subjects
Test: Adverse events (TEAEs, SAEs, AESI, study drug discontinuation, dose modification);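 further: counts of spontaneously reported adverse events in the Safety Analysis Set, subjects grouped by treatment actually received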
Assay type: in vivo, human
Text: In analyses performed on the Safety Analysis Set, subjects will be analyzed according to their actual treatment received.

CC(=O)N[C@H]1CC[C@H](NC(=O)CN2CCN(c3nncc(-c4ccc(C)cc4)n3)CC2)CC1 [Compound A HBr]
Dose titration: Hyperkalemia, subjects n (%) (100mg QD Pooled (N 60)): 2 (3.3%)
Dose titration: Hyponatremia, subjects n (%) (100mg QD Pooled (N 60)): 1 (1.7%)
Dose titration: Other possibly related, subjects n (%) (100mg QD Pooled (N 60)): 0
Dose titration: Other unrelated, subjects n (%) (100mg QD Pooled (N 60)): 0
Study drug discontinuation: Hyperkalemia, subjects n (%) (100mg QD Pooled (N 60)): 2 (3.3%)
Study drug discontinuation: Hyponatremia, subjects n (%) (100mg QD Pooled (N 60)): 1 (1.7%)
Study drug discontinuation: Hypotension, subjects n (%) (100mg QD Pooled (N 60)): 2 (3.3%)
Study drug discontinuation: Other possibly related, subjects n (%) (100mg QD Pooled (N 60)): 1 (1.7%)
Study drug discontinuation: Other unrelated, subjects n (%) (100mg QD Pooled (N 60)): 4 (6.7%)
Subjects with TEAE resulting in dose modification (Part 1): 24
Dose titration: Hyperkalemia, subjects n (%) (Part 1 100mg QD (N 29)): 1 (3.4%)
Dose titration: Hyponatremia, subjects n (%) (Part 1 100mg QD (N 29)): 0
Dose titration: Other possibly related, subjects n (%) (Part 1 100mg QD (N 29)): 0
Dose titration: Other unrelated, subjects n (%) (Part 1 100mg QD (N 29)): 0
Study drug discontinuation: Hyperkalemia, subjects n (%) (Part 1 100mg QD (N 29)): 2 (6.9%)
Study drug discontinuation: Hyponatremia, subjects n (%) (Part 1 100mg QD (N 29)): 0
Study drug discontinuation: Hypotension, subjects n (%) (Part 1 100mg QD (N 29)): 1 (3.4%)
Study drug discontinuation: Other possibly related, subjects n (%) (Part 1 100mg QD (N 29)): 1 (3.4%)
Study drug discontinuation: Other unrelated, subjects n (%) (Part 1 100mg QD (N 29)): 3 (6.0%)
On-treatment TEAE: Blood and lymphatic system disorders (Part 1, 12.5 mg BID (N = 22)): 0 n (%)
On-treatment TEAE: Blood and lymphatic system disorders, Mild (Part 1, 12.5 mg BID (N = 22)): 0 n (%)
On-treatment TEAE: Blood creatinine increased (Part 1, 12.5 mg BID (N = 22)): 0 n (%)
On-treatment TEAE: Blood creatinine increased, Mild (Part 1, 12.5 mg BID (N = 22)): 0 n (%)
On-treatment TEAE: Cardiac disorders (Part 1, 12.5 mg BID (N = 22)): 1 (4.5) n (%)
On-treatment TEAE: Cortisol decreased (Part 1, 12.5 mg BID (N = 22)): 2 (9.1) n (%)
On-treatment TEAE: Cortisol decreased, Mild (Part 1, 12.5 mg BID (N = 22)): 2 (9.1) n (%)
On-treatment TEAE: Dizziness (Part 1, 12.5 mg BID (N = 22)): 0 n (%)
On-treatment TEAE: Gastrointestinal disorders (Part 1, 12.5 mg BID (N = 22)): 0 n (%)
On-treatment TEAE: Gastrointestinal disorders, Mild (Part 1, 12.5 mg BID (N = 22)): 0 n (%)
On-treatment TEAE: General disorders and administration site conditions (Part 1, 12.5 mg BID (N = 22)): 2 (9.1) n (%)
On-treatment TEAE: General disorders and administration site conditions, Mild (Part 1, 12.5 mg BID (N = 22)): 1 (4.5) n (%)
On-treatment TEAE: Glomerular filtration rate decreased (Part 1, 12.5 mg BID (N = 22)): 3 (13.6) n (%)
On-treatment TEAE: Glomerular filtration rate decreased, Mild (Part 1, 12.5 mg BID (N = 22)): 3 (13.6) n (%)
On-treatment TEAE: Headache (Part 1, 12.5 mg BID (N = 22)): 0 n (%)
On-treatment TEAE: Headache, Mild (Part 1, 12.5 mg BID (N = 22)): 0 n (%)
On-treatment TEAE: Hyperkalaemia (Part 1, 12.5 mg BID (N = 22)): 5 (22.7) n (%)
On-treatment TEAE: Hyperkalaemia, Mild (Part 1, 12.5 mg BID (N = 22)): 4 (18.2) n (%)
On-treatment TEAE: Hyperkalaemia, Moderate (Part 1, 12.5 mg BID (N = 22)): 1 (4.5) n (%)
On-treatment TEAE: Hyperkalaemia, Severe (Part 1, 12.5 mg BID (N = 22)): 0 n (%)
On-treatment TEAE: Hypertension (Part 1, 12.5 mg BID (N = 22)): 0 n (%)
On-treatment TEAE: Hypertension, Moderate (Part 1, 12.5 mg BID (N = 22)): 0 n (%)
On-treatment TEAE: Infections and infestations (Part 1, 12.5 mg BID (N = 22)): 1 (4.5) n (%)
On-treatment TEAE: Infections and infestations, Mild (Part 1, 12.5 mg BID (N = 22)): 0 n (%)
On-treatment TEAE: Infections and infestations, Moderate (Part 1, 12.5 mg BID (N = 22)): 1 (4.5) n (%)
On-treatment TEAE: Investigations (Part 1, 12.5 mg BID (N = 22)): 6 (27.3) n (%)
On-treatment TEAE: Investigations, Mild (Part 1, 12.5 mg BID (N = 22)): 5 (22.7) n (%)
On-treatment TEAE: Investigations, Moderate (Part 1, 12.5 mg BID (N = 22)): 1 (4.5) n (%)
On-treatment TEAE: Metabolism and nutrition disorders (Part 1, 12.5 mg BID (N = 22)): 5 (22.7) n (%)
On-treatment TEAE: Metabolism and nutrition disorders, Mild (Part 1, 12.5 mg BID (N = 22)): 4 (18.2) n (%)
On-treatment TEAE: Metabolism and nutrition disorders, Moderate (Part 1, 12.5 mg BID (N = 22)): 1 (4.5) n (%)
On-treatment TEAE: Nervous system disorders (Part 1, 12.5 mg BID (N = 22)): 1 (4.5) n (%)
On-treatment TEAE: Nervous system disorders, Mild (Part 1, 12.5 mg BID (N = 22)): 1 (4.5) n (%)
On-treatment TEAE: Orthostatic hypotension (Part 1, 12.5 mg BID (N = 22)): 1 (4.5) n (%)
On-treatment TEAE: Orthostatic hypotension, Mild (Part 1, 12.5 mg BID (N = 22)): 1 (4.5) n (%)
On-treatment TEAE: Psychiatric disorders (Part 1, 12.5 mg BID (N = 22)): 1 (4.5) n (%)
On-treatment TEAE: Psychiatric disorders, Moderate (Part 1, 12.5 mg BID (N = 22)): 1 (4.5) n (%)
On-treatment TEAE: Urinary tract infection (Part 1, 12.5 mg BID (N = 22)): 0 n (%)
On-treatment TEAE: Urinary tract infection, Mild (Part 1, 12.5 mg BID (N = 22)): 0 n (%)
On-treatment TEAE: Vascular disorders (Part 1, 12.5 mg BID (N = 22)): 2 (9.1) n (%)
On-treatment TEAE: Vascular disorders, Mild (Part 1, 12.5 mg BID (N = 22)): 2 (9.1) n (%)
On-treatment TEAE: Vascular disorders, Moderate (Part 1, 12.5 mg BID (N = 22)): 0 n (%)
On-treatment TEAE: any, Mild (Part 1, 12.5 mg BID (N = 22)): 8 (36.4) n (%)
On-treatment TEAE: any, Moderate (Part 1, 12.5 mg BID (N = 22)): 5 (22.7) n (%)
On-treatment TEAE: any, Severe (Part 1, 12.5 mg BID (N = 22)): 0 n (%)
Subjects with any On-treatment TEAEs leading to withdrawal from study drug (Part 1, 12.5 mg BID (N = 22)): 1 (4.5) n (%)
TEAE leading to permanent discontinuation from study drug: Activated partial thromboplastin time prolonged (Part 1, 12.5 mg BID (N = 22)): 0 n (%)
TEAE leading to permanent discontinuation from study drug: Cardiac disorders (Part 1, 12.5 mg BID (N = 22)): 0 n (%)
TEAE leading to permanent discontinuation from study drug: Coronary artery disease (Part 1, 12.5 mg BID (N = 22)): 0 n (%)
TEAE leading to permanent discontinuation from study drug: Dizziness (Part 1, 12.5 mg BID (N = 22)): 0 n (%)
TEAE leading to permanent discontinuation from study drug: Hyperkalaemia (Part 1, 12.5 mg BID (N = 22)): 0 n (%)
TEAE leading to permanent discontinuation from study drug: Hypertension (Part 1, 12.5 mg BID (N = 22)): 0 n (%)
TEAE leading to permanent discontinuation from study drug: Hypotension (Part 1, 12.5 mg BID (N = 22)): 0 n (%)
TEAE leading to permanent discontinuation from study drug: Investigations (Part 1, 12.5 mg BID (N = 22)): 0 n (%)
TEAE leading to permanent discontinuation from study drug: Metabolism and nutrition disorders (Part 1, 12.5 mg BID (N = 22)): 0 n (%)
TEAE leading to permanent discontinuation from study drug: Nervous system disorders (Part 1, 12.5 mg BID (N = 22)): 0 n (%)
TEAE leading to permanent discontinuation from study drug: Orthostatic hypotension (Part 1, 12.5 mg BID (N = 22)): 1 (4.5) n (%)
TEAE leading to permanent discontinuation from study drug: Vascular disorders (Part 1, 12.5 mg BID (N = 22)): 1 (4.5) n (%)
On-treatment TEAE: Blood and lymphatic system disorders (Part 1, 12.5 mg QD (N = 23)): 0 n (%)
On-treatment TEAE: Blood and lymphatic system disorders, Mild (Part 1, 12.5 mg QD (N = 23)): 0 n (%)
On-treatment TEAE: Blood creatinine increased (Part 1, 12.5 mg QD (N = 23)): 0 n (%)
On-treatment TEAE: Blood creatinine increased, Mild (Part 1, 12.5 mg QD (N = 23)): 0 n (%)
On-treatment TEAE: Cardiac disorders (Part 1, 12.5 mg QD (N = 23)): 2 (8.7) n (%)
On-treatment TEAE: Cortisol decreased (Part 1, 12.5 mg QD (N = 23)): 0 n (%)
On-treatment TEAE: Cortisol decreased, Mild (Part 1, 12.5 mg QD (N = 23)): 0 n (%)
On-treatment TEAE: Dizziness (Part 1, 12.5 mg QD (N = 23)): 1 (4.3) n (%)
On-treatment TEAE: Gastrointestinal disorders (Part 1, 12.5 mg QD (N = 23)): 2 (8.7) n (%)
On-treatment TEAE: Gastrointestinal disorders, Mild (Part 1, 12.5 mg QD (N = 23)): 1 (4.3) n (%)
On-treatment TEAE: General disorders and administration site conditions (Part 1, 12.5 mg QD (N = 23)): 1 (4.3) n (%)
On-treatment TEAE: General disorders and administration site conditions, Mild (Part 1, 12.5 mg QD (N = 23)): 0 n (%)
On-treatment TEAE: Glomerular filtration rate decreased (Part 1, 12.5 mg QD (N = 23)): 1 (4.3) n (%)
On-treatment TEAE: Glomerular filtration rate decreased, Mild (Part 1, 12.5 mg QD (N = 23)): 1 (4.3) n (%)
On-treatment TEAE: Headache (Part 1, 12.5 mg QD (N = 23)): 0 n (%)
On-treatment TEAE: Headache, Mild (Part 1, 12.5 mg QD (N = 23)): 0 n (%)
On-treatment TEAE: Hyperkalaemia (Part 1, 12.5 mg QD (N = 23)): 6 (26.1) n (%)
On-treatment TEAE: Hyperkalaemia, Mild (Part 1, 12.5 mg QD (N = 23)): 4 (17.4) n (%)
On-treatment TEAE: Hyperkalaemia, Moderate (Part 1, 12.5 mg QD (N = 23)): 1 (4.3) n (%)
On-treatment TEAE: Hyperkalaemia, Severe (Part 1, 12.5 mg QD (N = 23)): 1 (4.3) n (%)
On-treatment TEAE: Hypertension (Part 1, 12.5 mg QD (N = 23)): 2 (8.7) n (%)
On-treatment TEAE: Hypertension, Moderate (Part 1, 12.5 mg QD (N = 23)): 1 (4.3) n (%)
On-treatment TEAE: Infections and infestations (Part 1, 12.5 mg QD (N = 23)): 3 (13.0) n (%)
On-treatment TEAE: Infections and infestations, Mild (Part 1, 12.5 mg QD (N = 23)): 3 (13.0) n (%)
